Key:
Brugia malayi [1] = assay: In vitro anti-filarial activity against female adult worms of Brugia. malayi at 100 uM concentration, using MTT reduction potential assay.; assay type: functional
Brugia malayi [2] = assay: In vitro anti-filarial activity against male adult worms of Brugia. malayi at 100 uM concentration, using MTT reduction potential assay.; assay type: functional
Brugia malayi [3] = assay: In vitro anti-filarial activity against male adult worms of Brugia. malayi at 100 uM concentration, using motility assay.; assay type: functional
Brugia malayi [4] = assay: In vitro anti-filarial activity against female adult worms of Brugia. malayi at 100 uM concentration, using motility assay.; assay type: functional
Brugia malayi [5] = assay: In vitro anti-filarial activity against male adult worms of Brugia. malayi at 100 uM concentration, using motility assay D = Dead worms; assay type: functional, organism-based
Brugia malayi [6] = assay: In vitro anti-filarial activity against female adult worms of Brugia. malayi at 100 uM concentration, using motility assay; D = Dead worms; assay type: functional, organism-based
Brugia malayi [7] = assay: In vitro anti-filarial activity against female adult worms of Brugia. malayi at 100 uM concentration, using motility assay; assay type: functional
Brugia malayi [8] = assay: In vitro anti-filarial activity against male adult worms of Brugia. malayi at 100 uM concentration, using motility assay; D = Dead worms; assay type: functional, organism-based
Brugia malayi [9] = assay: In vitro anti-filarial activity of the compound against male adult worms of Brugia. malayi at 100 uM concentration, using MTT reduction potential assay.; assay type: functional

SMILES | inhibition at 100 µM (Brugia malayi [1]) | inhibition at 100 µM (Brugia malayi [2]) | Mortality (Brugia malayi [3]) | Mortality (Brugia malayi [4]) | Mortality (Brugia malayi [5]) | Mortality (Brugia malayi [6]) | Mortality (Brugia malayi [7]) | Mortality (Brugia malayi [8]) | inhibition at 100 µM (Brugia malayi [9])
CCOC(=O)c1cnc2ccc(C(=O)O)cc2c1O | 0% | 0% | 3 | 3 |  |  |  |  | 
CCCCCCCCNC(=O)c1cnc2ccc(C(=O)O)cc2c1O | 84.8% | 62.8% |  |  | Dead worms | Dead worms |  |  | 
O=C(O)c1ccc2ncc(C(=O)NC3CCCCC3)c(O)c2c1 | 0% | 0% | 3 |  |  |  | 3 |  | 
CCCCCCNC(=O)c1cnc2ccc(C(=O)O)cc2c1O | 64.8% |  |  |  |  | Dead worms |  | Dead worms | 58.8%
O=C(O)c1ccc2ncc(C(=O)NC3CCCCCC3)c(O)c2c1 | 0% | 0% | 3 | 3 |  |  |  |  | 
